# Laboratory results: patent US9005667B1, “Treating leukemia with a whole, leech saliva extract” (priority 2012, dated 2015)
# Columns and labels:
# Salmonella typhi = test: Kirby-Bauer disc diffusion; type: cell-based; details: reference antibiotic disc (5 μg)
# [1] = test system: Cryptococcus neoformans ATCC90112; test: Kirby-Bauer disc diffusion; type: cell-based; details: reference antibiotic disc (100unit)
# Text: (§1) Experimental procedures include the following steps: • 1.
# [2] = test system: Candida albicans ATCC10231; test: Kirby-Bauer disc diffusion; type: cell-based; details: reference antibiotic disc (100unit)
# Text: as §1
# [3] = test system: alloxan induced-diabetic rats; test: Antihyperglycemic activity: fall in fasting blood glucose in alloxan induced-diabetic rats; type: in vivo, rat
compound,measurement,setting,value
"O=C(O)c1cn(C2CC2)c2cc(N3CCNCC3)c(F)cc2c1=O [Cipro, ciprofloxacin]","Zone of inhibition, Sal. typhi",Salmonella typhi,35 mm
"C[C@@H]1[C@H](O)[C@@H](C)/C=C/C=C/CC/C=C/C=C/C=C/C=C/C(O[C@H]2O[C@H](C)[C@@H](O)[C@H](N)[C@@H]2O)CC2O[C@](O)(CC(O)C(O)CCC(O)CC(O)CC(O)CC(=O)O[C@H]1C)CC(O)C2C(=O)O (stereo partly drawn) [Nystatin, nystatin]","Zone of inhibition, C. neoformance",[1],9 mm
same,"Zone of inhibition, C. albicans",[2],10 mm
insulin: insulin from bovine pancreas (≧27 units/mg),FBG,"[3]; all insulin-injected rats, after two hours of injection (p<0.001)",sharp significant decrease
same,FBG difference between normal rats and treated diabetic rats,[3]; at either dose,No significant difference
same,FBG,"[3]; insulin 10 units/kg b.w, after 8 hours of treatment",returned to the diabetic state
